Experiment [1] has as its system Human aortic endothelial cells (HAECs). Nature of the experiment: MTT assay, cell viability of HAECs. The class given is cell-based. The conditions noted are these: FIG. 1. How it is done:
(§1) Human aortic endothelial cells (HAECs) were purchased from Shanghai Shanghai Bioleaf Biotech Co., Ltd. Palmitic acid (PA) was purchased from SIGMA Company. A palmitic acid solution having a concentration of 500 μM was prepared by dissolving palmitic acid in water. A cell culture incubator was adopted to culture the cells in a temperature-constant, humidified, sterile condition. The cells were cultured in wells of culture plates at an atmosphere of 95% air and 5% CO2 at 37° C. in the incubator. The experiments were performed on different experimental groups of cells.
The HAECs that were previously cultured in a 12-well cell culture plates were divided into 6 different experimental groups and respectively applied with HT-HB in different concentrations, 0 μM, 1 μM, 10 μM, 50 μM, 100 μM, and 200 μM, all followed with an 24-hour incubation. Then, each of the 6 groups of cells was further divided into two sub groups, one was applied with 500 µM palmitic acid, the other was not, all followed with another 24-hour incubation.
An MTT assay was performed to all groups of cells. […] The absorbance was measured at a wavelength of 490 nm in a spectrophotometer. The absorbance of this colored solution can be quantified by measuring at a certain wavelength (usually between 500 and 600 nm) by a spectrophotometer.

The next experiment has as its system interleukin-6 (IL-6). Nature of the experiment: IL-6 mRNA level detection (RT-PCR) in HAECs. The conditions noted are these: FIG. 2. The class given is cell-based, human. How it is done:
as §1
The HAECs that were previously cultured in a 12-well cell culture plate were divided into 4 different experimental groups and respectively applied with HT-HB in different concentrations, 0 μM, 0 μM, 50 μM, 100 μM, all followed with an 24-hour incubation. Then, the last 3 groups of cells were respectively applied with 500 μM palmitic acid, the first was not, all followed with another 24-hour incubation. The detecting of mRNA levels corresponding to interleukin-6 (IL-6) was respectively carried out on each group of cells by using reverse transcription RNA and real-time quantitative polymerase chain reaction (PCR), and the specific method is as follows:
The medium for cell culture in the wells was removed. […] The concentration of the solution was measured by an ultraviolet spectrophotometer. […]

Another experiment has as its system mitochondrial complex I. Description: Protein detection by Western blot in HAECs, mitochondrial complex I. The class given is cell-based, human. The settings on record: FIG. 3A, 3B. The method, then: as §1
The HAECs that were previously cultured in a 6-well cell culture plate were divided into 3 different experimental groups, the control (Ctrl) group, the PA group, and the HT-HB+PA group. The cells of the HT-HB+PA group were applied with HT-HB in a concentration of 100 µM followed with an 24-hour incubation. […]
The medium for cell culture in the wells was removed. […] The supernatants were collected, and the proteins therein were quantified by bicinchoninic acid (BCA) assay, and normalized. […]
10 μg of the extracted proteins were subjected to gel electrophoresis with 10% acrylamide gel, and electrophoretic transferred onto a PVDF membrane, which were blocked, and incubated with a primary antibody at 4° C. overnight, free primary antibody was washed away. […] Target proteins were detected by chemiluminescence.

For another experiment, the system named is mitochondrial complex II. Description: Protein detection by Western blot in HAECs, mitochondrial complex II. The settings on record: 500 μM palmitic acid 24 h, vs control, FIG. 3A, 3B. The class given is cell-based, human. How it is done:
Human aortic endothelial cells (HAECs) were purchased from Shanghai Shanghai Bioleaf Biotech Co., Ltd. Palmitic acid (PA) was purchased from SIGMA Company. A palmitic acid solution having a concentration of 500 μM was prepared by dissolving palmitic acid in water. A cell culture incubator was adopted to culture the cells in a temperature-constant, humidified, sterile condition. The cells were cultured in wells of culture plates at an atmosphere of 95% air and 5% CO2 at 37° C. in the incubator. The experiments were performed on different experimental groups of cells. The HAECs that were previously cultured in a 6-well cell culture plate were divided into 3 different experimental groups, the control (Ctrl) group, the PA group, and the HT-HB+PA group. The cells of the HT-HB+PA group were applied with HT-HB in a concentration of 100 µM followed with an 24-hour incubation. Then, the cells of both the PA group and the HT-HB+PA group were applied with 500 μM palmitic acid, all followed with another 24-hour incubation. The protein detection was respectively carried out on each group of cells as follows. The medium for cell culture in the wells was removed. […] The supernatants were collected, and the proteins therein were quantified by bicinchoninic acid (BCA) assay, and normalized. […] Target proteins were detected by chemiluminescence.

Each structure is given as a SMILES string.

Consider `CC(O)CC(=O)OCCc1ccc(O)c(O)c1` (stereo not shown) [HT-HB, 2-(3,4-dihydroxyphenyl)ethyl 3-hydroxybutanoate], for which the relative cell viability entry in experiment [1] (HAECs not treated with palmitic acid, HT-HB 1 μM to 100 μM, vs cells without HT-HB (control)) was “higher viabilities”; in experiment [1] (HAECs pretreated with HT-HB 1 μM to 100 μM for 24 h, then 500 µM palmitic acid 24 h, vs palmitic acid treated cells without HT-HB) it was “higher viabilities”. Also, in the experiment on interleukin-6 (IL-6) (HAECs pretreated with HT-HB 100 M for 24 h, then 500 μM palmitic acid 24 h), the “mRNA level corresponding to IL-6” value is listed as “significantly decreased”. Also, the “relative protein expression level of mitochondrial complex I” value with mitochondrial complex I (HT-HB 100 M 24 h, then 500 μM palmitic acid 24 h, vs PA group) is “significantly increasing the expression”.

Turning to `CCCCCCCCCCCCCCCC(=O)O` [palmitic acid, reference compound], the “increase of mRNA level corresponding to IL-6” value in the experiment with interleukin-6 (IL-6) (HAECs, 500 μM palmitic acid 24 h, vs control group) is recorded as “about 10 times”. Besides, in the experiment on mitochondrial complex I (500 μM palmitic acid 24 h, vs control), the “relative protein expression level of mitochondrial complex I” value is reported as “reducing the expression”. Further, the “relative protein expression level of mitochondrial complex II” value in the experiment with mitochondrial complex II is reported as “reducing the expression”.

(Values after patent publication US20210047262A1, “2-(3,4-DIHYDROXYPHENYL)ETHYL 3-HYDROXYBUTANOATE, COMPOSITION, AND METHOD FOR IMPROVING FUNCTION OF AORTIC ENDOTHELIAL CELL” (XI'AN JIAOTONG UNIVERSITY, priority 2019, published 2021).)
